Patent US20260083729A1, “METHODS FOR TREATMENT OF BONE MARROW FAILURE AND RELATED CONDITIONS” (Imago Biosciences, Inc., priority 2022, published 2026)

Columns and labels:
[1] = tested on: long-term HSC (LT-HSC) cells; assay: In vivo expansion of long-term HSC (LT-HSC) cells in bone marrow of wild-type mice (flow cytometry); design: species or system mice (C57/BL6); conditions: oral gavage
Description: (§1) The effect of LSD1 inhibitors on HSCPs was investigated in in vivo studies.
(§2) Animals. Healthy animals with an intact immune system were used for all experiments. All animals were drug and test naïve and not involved in previous procedures. Animals were maintained on a 12 hour light-dark cycle with access to water and standard chow ad libitum. CRADL animal care staff conducted routine husbandry procedures and provided daily care and monitoring of all animals housed in CRADL's animal facilities. 8-week old female C57/BL6 (C57BL/6NCrl) mice were purchased from Charles River. All mice were acclimated for at least 48 hours upon arrival. Mice were assigned to treatment groups based on complete blood counts to achieve congruent profiles, body weight was recorded for dose adjustments, and ear tagged for identification. Investigators were not blinded to the identity of mice or samples. No statistical methods were utilized to determine sample size. The experiments described in this study were designed to use the minimum number of animals required.
(§3) Dosing. To assess the effect of different LSD1 inhibitors on hematopoietic stem and progenitor cells (HSPCs), wild-type mice were administered with Compound 3, Compound 2, or vehicle once daily for 7 days via oral gavage. Administered doses were as indicated in FIGS. 1-5 (Compound 3: 15 and 40 mg/kg, Compound 2, 15, 40, 60, and/or 80 mg/kg).
(§4) Drug preparation. As an example of formulation calculations, a correction factor (compound and lot dependent) of 1.5 will be used (e.g., one lot of Compound 2 actual correction factor 1.67; one lot of Compound 3 actual correction factor 1.69). Vehicle is 30% PEG400 (Millipore Sigma cat #8074850058), 5% Cremophor EL (Med Chem Express cat #HY-Y189) in sterile Milli-Q water.
(§5) Compound 3 or Compound 2 (salt) at a dose of 15 mg/kg dose was prepared by weighing out 0.3 mg×1.5 (example correction factor)=0.45 mg per mouse in 200 μl vehicle solution. Each mouse of 20 g received 200 μl of compound in vehicle solution (volume was corrected for body weight of each mouse at time of dosing). Calculations were scaled appropriately for higher doses. Compound was completely dissolved by swirling and gently pipetting in vehicle. Aliquots were stored for daily usage at 4 C in the dark. On the day of dosing, formulations and vehicle were removed from 4 C and allowed to warm to RT for at least 20 minutes before dosing. Formulations were swirled to achieve a homogenous solution prior to administration for 7 days, once daily, via oral gavage.
(§6) Processing of bones and blood for analysis. 24 hours after the last dose was administered, blood was collected via cheek bleed and mice were subsequently sacrificed via CO2 asphyxiation. Bones were separated from the mice, muscle and tissue removed, and bone marrow cells were isolated from mouse femora and tibiae by centrifugation. Red blood cells (RBC) were lysed by adding cold ACK lysis buffer (Thermo Fisher cat #A1049201) and incubating bone marrow cells (or […] of peripheral blood) on ice for 10 minutes. Following RBC lysis, samples were topped up with an appropriate volume of FACS buffer (PBS+2% BSA) and centrifuged at 3000 rpm for 5 minutes. Cell pellet was resuspended in FACS buffer and filtered through a […] filter to remove aggregated cell clumps and debris. Cells in the filtered suspension were counted and ˜2-3×10^6 cells removed for cell staining.
(§7) Flow Cytometry Analysis. For flow staining, @ 2-3×10e6 cells were centrifuged at 400×g, 5 minutes, 4 C in 1.5 ml centrifuge tubes. Supernatant was aspirated and cells were resuspended in 100 μl of staining cock-tail per tube. Tubes were incubated on ice for 30 minutes in the dark. 1 ml of FACS buffer (PBS+2% FBS) was added to each tube and then centrifuged at 400×g, 5 minutes, 4° C. Supernatant was aspirated, and cells were resuspended at 300 μl per tube in 7-AAD solution (5 μl/ml of FACS Buffer). […]

[2] = tested on: LSK cells (HSC/progenitor cells: Lineage−, Sca-1+, c-Kit+); assay: In vivo expansion of LSK cells in bone marrow of wild-type mice (flow cytometry); design: species or system mice (C57/BL6); conditions: oral gavage
Description: as §1, §2, §3, §4, §5, §6, §7

[3] = tested on: platelet (PLT) levels; assay: Complete blood count, platelet (PLT) levels, in treated mice; assay type: in vivo, mice (C57/BL6); conditions: once daily for 7 days, oral gavage
Description: as §2, §3
Compound 3 or Compound 2 (salt) at a dose of 15 mg/kg dose was prepared by weighing out 0.3 mg×1.5 (example correction factor)=0.45 mg per mouse in 200 μl vehicle solution. Each mouse of 20 g received 200 μl of compound in vehicle solution (volume was corrected for body weight of each mouse at time of dosing). Calculations were scaled appropriately for higher doses. Compound was completely dissolved by swirling and gently pipetting in vehicle. Aliquots were stored for daily usage at 4 C in the dark. […]
Processing of bones and blood for analysis. […] Cells in the filtered suspension were counted and ˜2-3×10^6 cells removed for cell staining.
Complete blood counts. Complete blood counts from the peripheral blood sample collected at end of study were measured at IDEXX BioAnalytics.

SMILES | in vivo expansion of LT-HSC cells, fold increase ([1]; 40 mg/kg once daily for 7 days) [fold] | number of LT-HSC cells, treated group ([1]; 40 mg/kg once daily for 7 days) | in vivo expansion of LT-HSC cells, fold increase ([1]; 80 mg/kg once daily for 7 days) [fold] | number of LT-HSC cells, treated group ([1]; 80 mg/kg once daily for 7 days) | in vivo expansion of LSK cells, fold increase ([2]; 40 mg/kg once daily for 7 days) [fold] | number of LSK cells, treated group ([2]; 40 mg/kg once daily for 7 days) | in vivo expansion of LSK cells, fold increase ([2]; 80 mg/kg once daily for 7 days) [fold] | number of LSK cells, treated group ([2]; 80 mg/kg once daily for 7 days) | effect on complete blood count as evidenced by platelet (PLT) levels ([3]; three higher concentrations) | effect on complete blood count as evidenced by platelet (PLT) levels ([3]; two concentrations) | in vivo expansion of LT-HSC cells, fold increase ([1]; 15 mg/kg once daily for 7 days) [fold] | number of LT-HSC cells, treated group ([1]; 15 mg/kg once daily for 7 days) | in vivo expansion of LSK cells, fold increase ([2]; 15 mg/kg once daily for 7 days) [fold] | number of LSK cells, treated group ([2]; 15 mg/kg once daily for 7 days)
COc1ccc(-n2nc(NC[C@H]3CCC[C@H](N)C3)cc2-c2ccc(C#N)c(F)c2)cc1 [Compound 2] | 1.5 | 250 | 1.6 | 157 | 1.7 | 1714 | 2.3 | 2215 | not significantly affected at any dose | not significantly affected at either dose | – | – | – | –
CN1CCN(C(=O)[C@H](CCCN[C@@H]2C[C@H]2c2ccc(F)cc2)NC(=O)c2ccc(-n3ccnn3)cc2)CC1 [IMG-7289, bomedemstat] | 7.5 | 921 | – | – | 6 | – | – | – | – | reduced in a dose-dependent manner | 2 | 252 | 2 | 2545
